Source: patent US5258406A, “Sulfonimidamides” (priority 1992, dated 1993)
Where two headings read alike, the source gives them in different places.

Legend:
Type in all cases: in vivo
Lewis Lung Carcinoma = assay: Inhibition of Lewis Lung Carcinoma growth in mice; settings: IP, DX 10
Method: (§1) The compounds were tested in C3H mice bearing a 6C3HED lymphosarcoma, also known as the Gardner lymphosarcoma (GLS), and in a variety of human tumor xenografts in CD1 nu/nu mice, including CX-1, LX-1, HXGC3, and VRC5. The 6C3HED lymphosarcoma was obtained from the Division of Cancer Treatment, National […] Institute, Tumor Bank, maintained at E. G. and G. Mason Research (Worcester, Mass.). The CX-1 human colon carcinoma and the LX-1 human lung carcinoma xenografts were obtained from the National Cancer Institute. The HXGC3 and VRC5 human colon xenografts were obtained from Dr. P. J. Houghton, St. Jude Children's Hospital in Memphis (see Br. J. Cancer, 37, 213 (1978)). First passage tumor was stored in liquid nitrogen using standard techniques. The transplanted tumor was reestablished from the Tumor Bank every six months or as needed. The tumor was maintained by serial passage twice weekly in C3H mice.
(§2) In the procedure the tumor was removed from passage animals and minced into 1- to 3-mm square fragments using sterile techniques. Tumor pieces were checked for sterility using both Antibiotic Medium 1 and Brain Heart Infusion (Difco, Detroit, Mich.). Recipient mice were shaved and tumor pieces were implanted subcutaneously in the auxiliary region by trocar. Drug therapy on the appropriate schedule was initiated on the day after tumor implant for 6C3HED and after a seven (7) day delay for xenografts (or other delay as noted in Table 2). The compound being tested was mixed with 2.5% Emulphor EL620 from GAF Corporation (1:40 dilution in saline). Food and water were provided ad libitium. The drug was administered orally in 0.5 ml of 2.5% Emulphor (unless otherwise indicated). The tumor was measured the day after treatment ended with two dimensional measurements (width and length) of the tumor taken using automated digital calipers interfaced to a microcomputer. Approximate weight for the tumor was calculated using the following formula [Worzalla, J. F., et al., Invest. New Drugs, 8, 241 (1990], (tumor weight in mg)=(width in mm)^2 ×(length in mm)/2.
(§3) At least one control group of an equal number of mice was treated with the same volume of 2.5% Emulphor only. The percent inhibition was determined by subtracting the ratio of the mean tumor size of the test group relative to the control group from one and multiplying the result times 100.
(§4) The results of several experiments in mice bearing a 6C3HED lymphosarcoma (or other tumor where indicated) when the indicated compounds were administered are provided in Table 2. In Table 2, column 1 gives the Example number of the compound used, column 2 lists the dose level in mg/kg, column 3 provides the percent inhibition of tumor growth, column 4 gives the number of mice which died relative to the total number of animals in the group, column 5 gives the method of administration of the compound, and column 6 gives the dosage schedule. The protocol used with other tumors was the same as with the 6C3HED lymphosarcoma.
(m) Tumor type Lewis Lung Carcinoma

VRC5 = system: VRC5
Method: as §1, §2, §3, §4

LX1 = settings: IP
Method: as §1, §2, §3, §4

MX1 = settings: IP, DX 10
Method: as §1, §2, §3, §4

B16 = settings: IP, DX 10
Method: as §1, §2, §3, §4

HC1 = settings: IP, DX 10
Method: as §1, §2, §3, §4

GC3 = settings: IP, DX 10
Method: as §1, §2, §3, §4

M5 Ovarian Carcinoma = settings: IP, DX 10, from day 5 after implant
Method: as §1, §2, §3, §4
(n) Tumor type M5 Ovarian Carcinoma

colon carcinoma26 = settings: IP, DX 10
Method: as §1, §2, §3, §4
(i) Tumor type colon carcinoma26

ELC2 = assay: Inhibition of ELC2 tumor growth in mice; settings: IP, DX 10
Method: as §1, §2, §3, §4

[1] = IP, 7.5 mg/kg, DX 10, from day 7 after implant
[2] = IP, 15 mg/kg, DX 10, from day 7 after implant
[3] = IP, 30 mg/kg, DX 10, from day 7 after implant
[4] = IP, 60 mg/kg, DX 10, from day 7 after implant
[5] = 3.75 mg/kg, DX 10 (line among ELC2 lines)
[6] = 3.75 mg/kg, DX 10, from day 7 after implant
[7] = 7.5 mg/kg, DX 10, from day 7 after implant
[8] = 15 mg/kg, DX 10, from day 7 after implant
[9] = 30 mg/kg, DX 10, from day 7 after implant

Cc1ccc(S(=N)(=O)NC(=O)Nc2ccc(Cl)cc2)cc1C (stereo not drawn) [Example 36, N-[[(4-chlorophenyl)amino]carbonyl]-3,4-dimethylbenzenesulfonimidamide]
% inhibition of tumor growth (Lewis Lung Carcinoma; 7.5 mg/kg): 6%
Tox/Tot (mice which died / total) (Lewis Lung Carcinoma; 7.5 mg/kg): 0/10
% inhibition of tumor growth (Lewis Lung Carcinoma; 15 mg/kg): 32%
Tox/Tot (mice which died / total) (Lewis Lung Carcinoma; 15 mg/kg): 0/10
% inhibition of tumor growth (Lewis Lung Carcinoma; 30 mg/kg): 34%
Tox/Tot (mice which died / total) (Lewis Lung Carcinoma; 30 mg/kg): 0/10
% inhibition of tumor growth (VRC5; [1]): 0%
Tox/Tot (mice which died / total) (VRC5; [1]): 1/10
% inhibition of tumor growth (VRC5; [2]): 0%
Tox/Tot (mice which died / total) (VRC5; [2]): 0/10
% inhibition of tumor growth (VRC5; [3]): 44%
Tox/Tot (mice which died / total) (VRC5; [3]): 4/10
% inhibition of tumor growth (VRC5; [4]): TOX
Tox/Tot (mice which died / total) (VRC5; [4]): 10/10
% inhibition of tumor growth (VRC5; oral, 5 mg/kg, DX 10): 0%
Tox/Tot (mice which died / total) (VRC5; oral, 5 mg/kg, DX 10): 0/10
% inhibition of tumor growth (VRC5; oral, 10 mg/kg, DX 10): 10%
Tox/Tot (mice which died / total) (VRC5; oral, 10 mg/kg, DX 10): 0/10
% inhibition of tumor growth (VRC5; oral, 20 mg/kg, DX 10): 45%
Tox/Tot (mice which died / total) (VRC5; oral, 20 mg/kg, DX 10): 2/9
% inhibition of tumor growth (LX1; [5]): 0%
Tox/Tot (mice which died / total) (LX1; [5]): 0/10
% inhibition of tumor growth (LX1; [6]): 16%
Tox/Tot (mice which died / total) (LX1; [6]): 0/10
% inhibition of tumor growth (LX1; [7]): 1%
Tox/Tot (mice which died / total) (LX1; [7]): 0/10
% inhibition of tumor growth (LX1; [8]): 18%
Tox/Tot (mice which died / total) (LX1; [8]): 1/10
% inhibition of tumor growth (LX1; [9]): TOX
Tox/Tot (mice which died / total) (LX1; [9]): 10/10
% inhibition of tumor growth (MX1; 3.75 mg/kg): 5%
Tox/Tot (mice which died / total) (MX1; 3.75 mg/kg): 0/10
% inhibition of tumor growth (MX1; 7.5 mg/kg): 0%
Tox/Tot (mice which died / total) (MX1; 7.5 mg/kg): 0/10
% inhibition of tumor growth (MX1; 15 mg/kg): 0%
Tox/Tot (mice which died / total) (MX1; 15 mg/kg): 0/10
% inhibition of tumor growth (MX1; 30 mg/kg): 12%
Tox/Tot (mice which died / total) (MX1; 30 mg/kg): 4/10
% inhibition of tumor growth (B16; 3.75 mg/kg): 0%
Tox/Tot (mice which died / total) (B16; 3.75 mg/kg): 0/10
% inhibition of tumor growth (B16; 7.5 mg/kg): 0%
Tox/Tot (mice which died / total) (B16; 7.5 mg/kg): 0/10
% inhibition of tumor growth (B16; 15 mg/kg): 0%
Tox/Tot (mice which died / total) (B16; 15 mg/kg): 0/10
% inhibition of tumor growth (B16; 30 mg/kg): 9%
Tox/Tot (mice which died / total) (B16; 30 mg/kg): 0/10
% inhibition of tumor growth (HC1; 7.5 mg/kg): 1%
Tox/Tot (mice which died / total) (HC1; 7.5 mg/kg): 0/10
% inhibition of tumor growth (HC1; 15 mg/kg): 24%
Tox/Tot (mice which died / total) (HC1; 15 mg/kg): 0/10
% inhibition of tumor growth (HC1; 30 mg/kg): 46%
Tox/Tot (mice which died / total) (HC1; 30 mg/kg): 6/10
% inhibition of tumor growth (HC1; 60 mg/kg): TOX
Tox/Tot (mice which died / total) (HC1; 60 mg/kg): 10/10
% inhibition of tumor growth (GC3; 3.75 mg/kg): 6%
Tox/Tot (mice which died / total) (GC3; 3.75 mg/kg): 0/10
% inhibition of tumor growth (GC3; 7.5 mg/kg): 17%
Tox/Tot (mice which died / total) (GC3; 7.5 mg/kg): 0/10
% inhibition of tumor growth (GC3; 15 mg/kg): 13%
Tox/Tot (mice which died / total) (GC3; 15 mg/kg): 1/10
% inhibition of tumor growth (GC3; 30 mg/kg): 12%
Tox/Tot (mice which died / total) (GC3; 30 mg/kg): 9/10
% inhibition of tumor growth (M5 Ovarian Carcinoma; 3.75 mg/kg): 10%
Tox/Tot (mice which died / total) (M5 Ovarian Carcinoma; 3.75 mg/kg): 0/10
% inhibition of tumor growth (M5 Ovarian Carcinoma; 7.5 mg/kg): 19%
Tox/Tot (mice which died / total) (M5 Ovarian Carcinoma; 7.5 mg/kg): 0/10
% inhibition of tumor growth (M5 Ovarian Carcinoma; 15 mg/kg): 47%
Tox/Tot (mice which died / total) (M5 Ovarian Carcinoma; 15 mg/kg): 0/10
% inhibition of tumor growth (M5 Ovarian Carcinoma; 30 mg/kg): 38%
Tox/Tot (mice which died / total) (M5 Ovarian Carcinoma; 30 mg/kg): 1/10
% inhibition of tumor growth (colon carcinoma26; 3.75 mg/kg): 5%
Tox/Tot (mice which died / total) (colon carcinoma26; 3.75 mg/kg): 0/10
% inhibition of tumor growth (colon carcinoma26; 7.5 mg/kg): 14%
Tox/Tot (mice which died / total) (colon carcinoma26; 7.5 mg/kg): 0/10
% inhibition of tumor growth (colon carcinoma26; 15 mg/kg): 6%
Tox/Tot (mice which died / total) (colon carcinoma26; 15 mg/kg): 0/10
% inhibition of tumor growth (colon carcinoma26; 30 mg/kg): 26%
Tox/Tot (mice which died / total) (colon carcinoma26; 30 mg/kg): 0/10
% inhibition of tumor growth (ELC2; 7.5 mg/kg): 0%
Tox/Tot (mice which died / total) (ELC2; 7.5 mg/kg): 0/10
% inhibition of tumor growth (ELC2; 15 mg/kg): 3%
Tox/Tot (mice which died / total) (ELC2; 15 mg/kg): 0/10
% inhibition of tumor growth (ELC2; 30 mg/kg): TOX
Tox/Tot (mice which died / total) (ELC2; 30 mg/kg): 10/10
